The values that follow come from publication PMC7842926, “Synergistic effect and ultrastructural changes in Trypanosoma cruzi caused by isoobtusilactone A in short exposure of time” (PLoS ONE, 2021).

A word on the CC50: it is the concentration giving 50% cytotoxicity. A word on the LC50: it is the concentration lethal to half of the exposed cells or organisms.

The subject of data set [1] is trypomastigotes. Particulars: concentration greater than 40 μM, exposure time of 18 hours; cited from earlier work.
In data set [2] the test system is epimastigotes of T. cruzi (Dm28c, TcI). Put plainly: Epimastigote cell viability assay (MTS/PMS), Dm28c. The settings on record: for activity at concentrations below 50 μg/mL in epimastigotes: 72 h of treatment, Dm28c; for IC50: Trypanosoma cruzi, read-out: Epimastigotes (Dm28c) IC50 - 4h (CI). In kind it is cell-based, Trypanosoma cruzi. As for the experimental part:
(§1) Epimastigote forms of three strains of T. cruzi, including Dm28c (TcI), CL Brener (TcVI), and Y strain (TcII), were maintained in liver infusion tryptose (LIT) medium supplemented with 10% fetal bovine serum at 28°C [16] were kindly provided by Oswaldo Cruz Institute/Fiocruz. For the experiments, exponential phase cultures were used. All assays were performed in triplicates in 96-well plates.
The effect of the isolated compounds on the viability of epimastigote forms of Dm28c strain was determined by MTS [3-(4,5-dimethylthiazol-2-yl)-5-(3-carboxymethoxyphenyl)-2-(4-sulfophenyl)-2H-tetrazolium bromide] with PMS (5-methyl-phenazinium methyl sulfate) colorimetric assay, as described by Nunes et al.. […]
(§2) The absorbance of the formazan was measured at 490 nm using a microplate reader (Asys Expert Plus -Biochrom). In parallel, we determined the effect of 1% DMSO (negative control) and benznidazole (positive control) on the viability of epimastigotes and a replicate of each treatment was performed by fixing the epimastigotes with 4% paraformaldehyde prior to the addition of MTS/PMS (basal absorbance control).
(§3) The 50% cytotoxic concentration (CC50), x % inhibitory concentration (ICx = IC25, IC50, IC75, or IC90), and 50% lethal concentration (LC50) values were obtained from the percentage of inhibition/death versus log concentration of each compound, by nonlinear regression with variable slope and automatic withdrawal of outliers with ROUT coefficient (Q = 5). […] Graphpad Prism software version 7.04 was used for all regressions.

For data set [3] the test system is unchanged. Also on record: method as in PMID 32327956. Particulars: 24 h of treatment; read-out: IC50 epimastigote forms of Dm28c strain; cited from earlier work.
Data set [4] relates to amastigote forms. The settings on record: longer treatment periods; read-out: activity against amastigote forms; cited from earlier work.
Data set [5] concerns trypomastigotes. Particulars: period of treatment 24 h; read-out: IC50 against trypomastigotes; cited from earlier work.
Data set [6] deals with epimastigote forms of Y strain (TcII). Put plainly: Epimastigote cell viability assay (MTS/PMS), Y strain. In kind it is cell-based, Trypanosoma cruzi. The settings on record: Trypanosoma cruzi; 4 h of treatment; read-out: IC50 epimastigotes strain Y. As for the experimental part:
as §1, §2, §3

A short description of data set [7]: Cytotoxicity assay (MTT). In kind it is cell-based. The settings on record: African green monkey (Cercopithecus aethiops), Vero cells (CCL-81); for CC50 at 4 h: 4 h of treatment, read-out: Vero cells (CCL-81) CC50 - 4h (CI); for CC50 at 24 h: 24 hours of treatment, confidence interval in brackets, read-out: Vero cells (CCL-81) CC50 (CI). The method, then: Vero cells (CCL-81) isolated from the kidney of the African green monkey Cercopithecus aethiops were purchased from ATCC® (Washington DC, USA). The cells were inoculated in 200 μL of Dulbecco’s modified Eagle (DMEM) medium in 96-well plates at a concentration of 2 × 10^4 cells/well and incubated at 37°C for 24 h for adherence of the cells. Six different concentrations of the compounds (12 to 900 μM for butanolides, and 200 to 1,600 μM for benznidazole) were added to the wells. After 4 or 24 h of treatment, the cells were washed and cell viability was assessed using MTT (3-(4,5-Dimethylthiazol-2-yl)-2,5-Diphenyltetrazolium Bromide) assay (2 mg/mL). After 4 h of incubation at 37°C in a CO2 atmosphere, the wells were washed and 100% DMSO was added to solubilize the formazan crystals. The absorbance was measured at 570 nm using an ELISA plate reader (Biotek Model EL-800, VT, USA). DMSO (1%) treatment served as negative control and benznidazole treatment served as positive control.
as §3

The test system of data set [8] is epimastigote forms of CL Brener (TcVI). Put plainly: Epimastigote cell viability assay (MTS/PMS), CL Brener. The settings on record: Trypanosoma cruzi; 4 h of treatment; read-out: IC50 epimastigotes strain CL Brener. In kind it is cell-based, Trypanosoma cruzi. As for the experimental part: as §1, §2, §3
Data set [9] has as its system amastigotes of T. cruzi (Dm28c). Put plainly: Antiproliferative assay on intracellular amastigotes in Vero host cells. The settings on record: for IC50: Trypanosoma cruzi, Vero, 24 hours of treatment, confidence interval in brackets, read-out: Amastigotes (Dm28c) IC50 (CI); for SI (selectivity index): Vero CC50 versus amastigote IC50, 24 hours. In kind it is cell-based, Trypanosoma cruzi. As for the experimental part: To determine the antiproliferative effect of butanolides on intracellular amastigote forms (Dm28c), Vero cells were used as host cells. Vero cells were cultured in DMEM and maintained in a CO2 atmosphere at 37°C.
After 4 h of incubation for adherence and infection, the cells were washed with 1x phosphate buffered saline (PBS) and then incubated in DMEM for 20 h to allow differentiation of internalized trypomastigotes into amastigotes.
Vero cells infected with amastigotes were incubated for 4 or 24 h with the compounds (4 concentrations within the range 4–200 μM) in DMEM. After incubation, the cells were washed, fixed in methanol, stained with 4',6-Diamidino-2-phenylindole (DAPI), and photographed using Leica DMI 6000-B fluorescence microscope. The photos obtained were analyzed using the software ImageJ version 1.5 for quantification of total Vero cells and determination of the percentage of infected cells and number of amastigotes per cell. The 50% inhibitory concentration (IC50) was calculated using the infectivity index (II) described by Ceole et al.. DMSO (1%) treatment served as negative control and benznidazole treatment served as positive control.
as §3

The subject of data set [10] is trypomastigote forms of the parasite (Dm28c). Put plainly: microbe, parasite or virus in culture. In kind it is cell-based. The method, then:
Cell-derived trypomastigotes (Dm28c) were obtained from the supernatant of infected Vero cell cultures. Vero cells (9 × 10^5 cells/mL) and trypomastigotes were seeded at a ratio of 1:10 into culture bottles (75 cm^2) containing DMEM. After 4 h of incubation, the bottles were washed to remove unadhered trypomastigotes and incubated for another 96 h under CO2 atmosphere at 37°C. After 96 h of incubation, new trypomastigote forms were collected from the supernatant and used to perform the assays.
The lysis assay was performed in 96-well plates in technical triplicates (4 concentrations within the range 4–250 μM for butanolides and 200–1,600 μM for benznidazole), and the trypomastigotes (1 x 10^6 parasites/well) were incubated in 200 μL of DMEM (supplemented with 10% FBS, 100 μg/mL streptomycin, and 100 IU/mL penicillin) with the compounds at 37°C for 4 h. The test, negative control (1% DMSO), and positive control (benznidazole) parasites were fixed and counted in Neubauer's chamber.
as §3

Data set [11] relates to T. cruzi. Particulars: cited from earlier work.
Where [12] appears, read: 4 h of treatment, Na = not active.

Where two headings read alike, the source gives them in different places. Where a SMILES comes first, the peptide text is derived from it. The star is where a group is joined. Cbz = O=C(OCc1ccccc1)*

Take `Oc1ccc(/C=C/c2cc(O)cc(O)c2)cc1` [resveratrol]: in [1], the reduction of infection entry is on record as “by half”.
On to `CCCCCCCCCCCCC/C=C1\C(=O)O[C@@H](C)[C@H]1O` [Epilitsenolide C1, epilitsenolide C1], for which the “Epimastigotes (Dm28c) IC50 - 4h (CI)” value in data set [2] (setting [12]) was “did not show activity”. Also, the “activity at concentrations below 50 μg/mL in epimastigotes” value in data set [2] is recorded as “exhibited activity”. Further, in data set [3], the IC50 is 7.77 µM.
For the molecule `C=C1OC(=O)/C(=C\CCCCCCCCCCCCCCC)[C@H]1O` [isolinderanolide E], the IC50 in data set [4] was 10.1 µM; in data set [5] it was 29.9 µM.
Turning to isolinderanolide D, the IC50 is 25.3 µM in data set [4] and 12.9 µM in data set [5].
Consider `O=C(Cn1ccnc1[N+](=O)[O-])NCc1ccccc1` [Benznidazole, benznidazole, reference compound], for which the IC50 in [6] is more than 1.6 mM; in data set [2] (setting [12]) it was more than 1600 µM; in data set [8] it was more than 1.6 mM; in [9], 6.57 µM. The cytotoxic concentration (CC50) at 4 h in data set [7] was more than 1600 µM. In addition, in data set [7], the CC50 at 24 h was 1140 µM. The “SI (selectivity index)” value in data set [9] was 174.
For the molecule `CCCCCCCCCCCCC/C=C1\CC(CO)OC1=O` (stereo not shown) [Majoranolide, majoranolide], the CC50 at 4 h in data set [7] turned out to be 558 µM. Also, the CC50 at 24 h in data set [7] is 166 µM. In addition, the “activity at concentrations below 50 μg/mL in epimastigotes” value in data set [2] is reported as “exhibited activity”. The values for the IC50 in data set [2] (setting [12]) and in data set [9] were more than 250 µM and 21.9 µM, respectively. The “SI (selectivity index)” value in data set [2] (Vero CC50 4 h versus epimastigote Dm28c IC50 4 h) is 0.94; in data set [9], 7.57; in data set [10] (trypomastigotes Dm28c, 4 h, Vero cells) it was 7.77. For the same molecule, the median lethal concentration (LC50) in [10] (Trypanosoma cruzi, 4 h of treatment, read-out: LC50 against trypomastigote forms (Dm28c)) was found to be 71.7 µM.
As to `CCCCCCCCCCCCCCC/C=C(/C(=O)OC)[C@H](O)C(C)=O` [secosubamolide A], the figures for the IC50 in data set [4] and in data set [5] were 12.3 µM and 12.5 µM, respectively.
For `CC(C)=CCCC(C)=CC=O` (mixture of isomers) [Citral], the inhibition of metacyclogenesis in data set [11] (30 μg/mL) is 54%.
Turning to `CC(C)[C@H](NC(=O)OCc1ccccc1)C(=O)N[C@H](C=O)Cc1ccccc1` [MDL28170] (Cbz-Val-Phe-aldehyde), in [11] (50 μM, 96-hour treatment), the inhibition of differentiation is recorded as approximately 50%.
